In publication PMC11603058 (Scientific Reports, 2024):
pIC50: −log10 of the molar value. Peptide text beside a SMILES is read from it. * marks the point of attachment. Cbz = O=C(OCc1ccccc1)*; CH2F = FC*

Legend:
[1] = system: MIA PaCa-2 cells; test: Viability of AJO14-treated cells in presence of cell death inhibitors; assay type: cell-based, human; settings: MIA PaCa-2, 24 h; Z-VAD-FMK (20 µM), Nec-1 (40 µM), or Olaparib (25 μM)
[2] = biological target: hERG channel (Homo sapiens, UniProt Q12809); test: Predictor hERG Fluorescence Polarization assay; assay type: binding; settings: read-out: hERG channel inhibition (IC50), 0.1-80 μM
Chain of hERG channel (Q12809 whole entry): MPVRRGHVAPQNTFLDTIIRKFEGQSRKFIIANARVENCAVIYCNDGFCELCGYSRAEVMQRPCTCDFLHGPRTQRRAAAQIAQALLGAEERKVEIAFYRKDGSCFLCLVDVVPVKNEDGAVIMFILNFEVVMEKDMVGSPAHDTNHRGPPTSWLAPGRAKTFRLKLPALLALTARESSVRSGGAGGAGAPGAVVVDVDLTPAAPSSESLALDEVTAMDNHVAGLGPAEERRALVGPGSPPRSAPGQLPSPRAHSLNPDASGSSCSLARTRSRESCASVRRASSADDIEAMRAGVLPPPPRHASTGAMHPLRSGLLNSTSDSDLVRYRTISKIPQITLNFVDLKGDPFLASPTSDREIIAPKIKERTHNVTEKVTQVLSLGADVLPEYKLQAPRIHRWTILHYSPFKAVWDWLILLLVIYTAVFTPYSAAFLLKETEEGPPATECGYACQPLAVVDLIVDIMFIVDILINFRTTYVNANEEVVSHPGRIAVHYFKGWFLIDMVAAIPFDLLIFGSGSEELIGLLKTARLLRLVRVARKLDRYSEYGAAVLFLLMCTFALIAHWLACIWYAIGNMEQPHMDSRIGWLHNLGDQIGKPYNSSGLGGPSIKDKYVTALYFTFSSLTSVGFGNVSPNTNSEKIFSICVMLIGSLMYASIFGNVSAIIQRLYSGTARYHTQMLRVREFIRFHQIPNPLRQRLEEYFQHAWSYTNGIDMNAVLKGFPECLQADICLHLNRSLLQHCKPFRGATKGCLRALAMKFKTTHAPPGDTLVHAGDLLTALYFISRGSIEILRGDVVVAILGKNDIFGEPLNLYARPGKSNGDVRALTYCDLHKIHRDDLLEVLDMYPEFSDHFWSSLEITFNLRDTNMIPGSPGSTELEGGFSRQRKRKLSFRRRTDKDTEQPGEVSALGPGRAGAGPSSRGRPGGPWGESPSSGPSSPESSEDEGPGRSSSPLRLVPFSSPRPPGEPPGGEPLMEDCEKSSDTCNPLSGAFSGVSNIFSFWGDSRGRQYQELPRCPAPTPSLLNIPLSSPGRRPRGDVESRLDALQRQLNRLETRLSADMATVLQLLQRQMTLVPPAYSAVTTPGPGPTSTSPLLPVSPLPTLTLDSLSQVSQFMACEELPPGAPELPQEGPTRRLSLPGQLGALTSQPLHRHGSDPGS

[3] = system: MIA PaCa-2 cells; test: Oxygen consumption rate, Seahorse XF; assay type: cell-based, human; settings: MIA PaCa-2, 24 h, AJO14 (10 μM) with increasing concentrations of Olaparib

Structure (SMILES): COC(=O)C[C@H](NC(=O)[C@H](C)NC(=O)[C@@H](NC(=O)OCc1ccccc1)C(C)C)C(=O)CF [Z-VAD-FMK] (Cbz-Val-Ala-Asp(OMe)-CH2F)
- effect of pretreatment on cell viability of cells treated with AJO14 [1]: partially improved the cell viability

Structure (SMILES): CN1C(=O)C(Cc2c[nH]c3ccccc23)NC1=S (centres unmarked) [Necrostatin]
- effect of pretreatment on cell viability of cells treated with AJO14 [1]: partially improved the cell viability

Structure (SMILES): CN(C)CCN1CCN(CCCN2c3ccccc3Sc3ccc(C(F)(F)F)cc32)CC1 [ZZW-115]
- pIC50 [2]: 5.70

Structure (SMILES): O=C(c1cc(Cc2n[nH]c(=O)c3ccccc23)ccc1F)N1CCN(C(=O)C2CC2)CC1 [Olaparib]
- effect of pretreatment on cell viability of cells treated with AJO14 [1]: partially improved the cell viability
- effect on mitochondrial metabolism failure (OCR) caused by AJO14 [3]: could reverse the strong mitochondrial metabolism failure caused by AJO14
